In article PMC4414177, “A novel orally active water-soluble inhibitor of human glutathione transferase exerts a potent and selective antitumor activity against human melanoma xenografts” (Oncotarget, 2015):
pIC50: −log10 of the molar value.

Tests used:
A375 tumor xenografts = assay: Immunohistochemical analysis of A375 tumor xenografts; assay type: in vivo, mice
Excerpt: (§1) At sacrifice, tumors were removed, formalin-fixed and paraffin embedded. All internal organs were fixed and paraffin embedded for the morphological study to evaluate drug effects in normal tissues. Three μm-thick sections were cut and stained with haematoxylin and eosin (H&E). Two observers blindly classified the tissues for necrotic areas, evaluated as percent of total area, mitosis number in 10 high power field randomly selected away from the ischemic necrosis.
Briefly, 3-μm-thick sections were pre-treated with EDTA citrate pH 7.8, for 30 min, at 95°C and then incubated respectively with rabbit monoclonal anti-Phospho-SAPK/JNK (1:100, 81E11, Cell Signaling, Danvers Massachusetts, USA) and rabbit polyclonal anti-Caspase3, for 60 min (1:100, PA5-16335, ThermoFisher Scientific, Walthman, MA, USA). Washing were performed with PBS 4% + Tween20, pH 7.6, by UCS diagnostic.

A375 cells [1] = assay: Annexin V / PI staining (flow cytometry); assay type: cell-based, human
Experimental: (§2) A375 and SK23-MEL cells, were fixed with 70% ethanol overnight, stained with PI staining buffer ([…] and 1% Triton X-100) and analyzed by a FACSCalibur (BD Bioscence, San Jose, CA, USA). The percentage of early apoptotic, late apoptotic, and necrotic cells was determined by simultaneous staining of cells with PI (2 μg/ml) and Annexin V-FITC (0.5 μg/ml) (Sigma Aldrich), according to manufacturer's protocol. Flow cytometric data were analyzed by the FlowJo 8.8.6 software (Tree Stare, Inc, Ashland, OR, USA).

SK23-MEL cells [2] = assay: Annexin V / PI staining (flow cytometry); assay type: cell-based, human; settings: 48 hrs of treatment
Experimental: as §2

SK23-MEL cells [3] = assay: Tyrosinase activity; assay type: cell-based, human; settings: 7 μM, 48 hrs, p < 0.005
Experimental: Cells (1×10^6) were lysed in 1M NaOH at 100°C, for 1 hour and then centrifuged at 15,000 g, for 20 minutes. […] Tyrosinase activity was examined by measuring spectrophotometrically at 475 nm the rate of L-DOPA oxidation to dopachrome over 1 hour at 37°C. Cells [1×10^6 in 40 μl of 20 mM potassium phosphate buffer (pH 6.8) containing 1% Triton X-100 and 1 mM PMSF] were disrupted by freezing and thawing and centrifuged at 15,000 g for 20 minutes at 4°C. The assay was started by addition of 100 μl of 2 mg/ml L-DOPA to 40 μl of supernatant. Tyrosinase activity was expressed as change in absorbance, per hour, per 10^6 cells.

[4] = test system: five cultured human melanoma cell lines; assay: Cell growth inhibition, SRB assay, whole panel; assay type: cell-based; settings: range over A375, G-361, MALME-3M, IST-MEL-1, SK23-MEL
Experimental: The IC50 values for each compound were then evaluated by the SRB assay.

[5] = test system: G-361 human melanoma cells; assay: G-361 cellular xenograft model, antitumor efficacy; assay type: in vivo, mice; settings: G-361 xenograft
Experimental: (§3) SK23-MEL and G-361 cells were injected s.c. (in both cases, 1×10^6) into the right flank of NOD/SCID and SCID male mice, respectively. Animals were randomly divided in groups of 6 mice and treatments were started at day 10 (SK23-MEL) and 14 (G-361), when tumors were clearly palpable.
(§4) Primary tumor growth was determined for all animals by caliper measurement (minor and major axis length), three times per week, until they were sacrificed. Primary tumor volume was determined using the following equation: V (cm^3)=(α^2×β)/2 (Eq. 3)
(§5) The efficacy of the treatment was also analyzed by calculation of the percentage of Increase in Life Span (% ILS), since this analysis gives an evidence of clinical potency. Survival endpoint for each animal was fixed at the day when tumor volume reached 1.0 cm^3 (A375) or 0.4 cm^3 (SK23-MEL and G-361), and data were used to plot the relative Kaplan-Meier curves. Treatment efficacy was then evaluated by comparing the Median Survival Time (MST) of treated group with the MST of control group, and expressed as percentage of ILS: % ILS=[100×(MSTtreated group)/(MSTcontrol group)]−100 (Eq. 4)
(§6) Treatment was considered effective when % ILS > 20%.

SK23-MEL cells [6] = assay: Cell morphology (phase-contrast microscopy); assay type: cell-based, human; settings: 7 μM, 48 hrs
A375 cells [7] = assay: JNK phospho-activation (Western blot); assay type: cell-based, human; settings: A375, 10 μM
Experimental: The cell pellet obtained at each time point was lysed as previously reported and the protein concentration was determined using the Lowry colorimetric assay. Proteins (40 μg) were loaded on 12% SDS-polyacrylamide gel and transferred onto a PVDF membrane (GE Healthcare, Chalfont St. Giles, UK). Anti-P-JNK (Thr183 Tyr185) (Cell Signaling, Beverly, MA, USA), anti-JNK (Cell Signaling) and anti-β actin were used as primary antibodies. […] The ImageJ software was used to analyze the band intensities.

A375 cells [8] = assay: Caspase-3 activity in cell lysates; assay type: cell-based, human; settings: A375, 10 μM
Experimental: (§7) Apoptosis was confirmed by measuring caspase-3 activity, at 25°C, in total cell lysates, using the model fluorescent peptide substrate N-Acetyl-Asp-Glu-Val-Asp-7-amido-4-trifluoromethylcoumarin (Ac-DEVD-AFC). […] Caspase activity was expressed as change in fluorescence per min, per 10^6 cells.

SK23-MEL cells [9] = assay: Caspase-3 activity in cell lysates; assay type: cell-based, human; settings: 7 μM
Experimental: as §7

SK23-MEL tumors = assay: Histological analysis of SK23-MEL tumors; assay type: in vivo, mice; settings: SK23-MEL xenografts, MC3181-treated
Excerpt: as §1

[10] = test system: SK23-MEL human melanoma cells; assay: SK23-MEL cellular xenograft model, antitumor efficacy; assay type: in vivo, mice; settings: 8 mg/kg/day i.v. or oral, q1dx5 three weeks
Experimental: as §3, §4, §5, §6

O=[N+]([O-])c1ccc(SCCOCCOCCO)c2nonc12 [MC3181, 2-(2-(2-((7-nitrobenzo[c][1,2,5]oxadiazol-4-yl)thio)ethoxy)ethoxy)ethanol]
higher apoptosis compared to untreated controls (A375 tumor xenografts; A375 tumor xenografts, data not shown): about 20%
JNK phosphorylation and caspase-3 in tumors (A375 tumor xenografts; A375 xenografts, 8 mg/kg, P-JNK 6 hrs after treatment, caspase-3 at end of treatment): significant increase of JNK phosphorylation and caspase-3 activity
percentage of total apoptotic cells (A375 cells [1]; A375, 24 hrs post-treatment): approximately 23%
percentage of total apoptotic cells (A375 cells [1]; A375, 48 hrs post-treatment): ~37%
percentage of total apoptotic cells (SK23-MEL cells [2]): about 20%
tyrosinase activity (SK23-MEL cells [3]): significant increase
pIC50 [4]: 5.62 to 6.10
animals still alive at the end of the observation period ([5]; 8 mg/kg/day oral): 50%
disease course ([5]; 8 mg/kg/day oral): stabilization and regression of the disease in half of the treated mice
tumor growth ([5]; 8 mg/kg/day, both administration routes (i.v., oral)): significant delay in tumor growth
cell morphology (SK23-MEL cells [6]): clear morphological changes
JNK phosphorylation (A375 cells [7]): sustained increase in JNK phosphorylation
start of the increase in JNK phosphorylation after addition of the drug (A375 cells [7]): ≤ 1 h
caspase-3 activation (A375 cells [8]): strong caspase-3 activity
caspase-3 activation (SK23-MEL cells [9]): negligible increase of proteolitic activity
tumor histology (SK23-MEL tumors): melanin production
ILS [10]: < 20%
tumor growth [10]: a certain degree of delay in tumor growth
